# Results: the supplement of paper PMC10307832
# Key:
# Experiment in all cases: relative viability (nuclei count vs DMSO), 5 days (fraction); higher = more cells survive
# AZ505 + Bortezomib = compound: C1CCC(CC1)N(CCNCCC2=C3C(=C(C=C2)O)NC(=O)CO3)C(=O)CCNCCC4=CC(=C(C=C4)Cl)Cl [AZ505] + CC(C)C[C@H](NC(=O)[C@H](Cc1ccccc1)NC(=O)c1cnccn1)B(O)O [Bortezomib] (partner 0.002 µM)
# How it was run: (§1)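 Relative viability was taken as the ratio of nuclei in treated wells to nuclei in vehicle wells. Lung cancer cell lines in 1536-well plates received compounds by pin tool one day after seeding, either one drug alone or a fixed anchor-drug dose plus five library-drug doses (not always all listed) in √10 steps. Nuclei were counted on 4× images after 5 days of treatment, and values are medians of duplicate plates.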
# AZ505 + Vorinostat = compound: C1CCC(CC1)N(CCNCCC2=C3C(=C(C=C2)O)NC(=O)CO3)C(=O)CCNCCC4=CC(=C(C=C4)Cl)Cl [AZ505] + O=C(CCCCCCC(=O)Nc1ccccc1)NO [Vorinostat] (partner 1 µM)
# How it was run: as §1
# Dactolisib + Phenformin = compound: Cn1c(=O)n(-c2ccc(C(C)(C)C#N)cc2)c2c3cc(-c4cnc5ccccc5c4)ccc3ncc21 [Dactolisib] + N=C(N)NC(=N)NCCc1ccccc1 [Phenformin] (partner 250 µM)
# How it was run: as §1
# Dactolisib + AZD7762 = compound: Cn1c(=O)n(-c2ccc(C(C)(C)C#N)cc2)c2c3cc(-c4cnc5ccccc5c4)ccc3ncc21 [Dactolisib] + NC(=O)Nc1cc(-c2cccc(F)c2)sc1C(=O)N[C@H]1CCCNC1 [AZD7762] (partner 0.2 µM)
# How it was run: as §1
Cell Line,relative viability (AZ505 + Bortezomib; first compound 0.08 µM),relative viability (AZ505 + Bortezomib; first compound 0.253 µM),relative viability (AZ505 + Bortezomib; first compound 0.8 µM),relative viability (AZ505 + Bortezomib; first compound 2.53 µM),relative viability (AZ505 + Bortezomib; first compound 8 µM),relative viability (AZ505 + Vorinostat; first compound 0.08 µM),relative viability (AZ505 + Vorinostat; first compound 0.253 µM),relative viability (AZ505 + Vorinostat; first compound 0.8 µM),relative viability (AZ505 + Vorinostat; first compound 2.53 µM),relative viability (AZ505 + Vorinostat; first compound 8 µM),relative viability (Dactolisib + Phenformin; first compound 0.002 µM),relative viability (Dactolisib + Phenformin; first compound 0.006325 µM),relative viability (Dactolisib + Phenformin; first compound 0.02 µM),relative viability (Dactolisib + Phenformin; first compound 0.2 µM),relative viability (Dactolisib + AZD7762; first compound 0.002 µM),relative viability (Dactolisib + AZD7762; first compound 0.006325 µM),relative viability (Dactolisib + AZD7762; first compound 0.02 µM),relative viability (Dactolisib + AZD7762; first compound 0.06325 µM),relative viability (Dactolisib + AZD7762; first compound 0.2 µM),relative viability (Dactolisib + Phenformin; first compound 0.06325 µM)
HCC-44,0.865,0.883,0.879,0.915,0.86,1.09,1.09,1.06,1.23,1.14,0.274,0.203,0.171,0.166,1.03,1.03,0.951,1.07,1.14,
HCC-827,0.92,0.957,1.01,1,1.1,0.906,0.732,0.7,0.92,0.924,0.394,0.392,0.396,0.393,0.226,0.279,0.176,0.184,0.231,0.382
NCI-H1623,,,,,,,,,,,0.618,0.628,0.561,0.438,,,,,,0.585
NCI-H2347,,0.801,0.75,,0.681,0.39,0.417,0.474,0.464,0.352,0.731,0.409,0.381,0.264,0.75,0.78,0.715,0.532,0.458,0.329
PC-14,0.776,0.877,0.882,0.768,0.841,0.527,0.79,0.659,0.688,0.761,0.642,0.523,0.45,0.144,0.348,0.368,0.333,0.176,0.135,0.29
NCI-H1651,0.882,0.956,0.909,0.927,1.03,0.443,0.606,0.585,0.607,0.568,0.333,0.279,0.305,0.204,0.443,0.483,0.318,0.28,0.179,0.243
HARA,1.04,1.01,0.914,1.03,0.916,0.547,0.522,0.457,0.471,0.541,0.467,0.441,0.51,0.211,0.271,0.463,0.59,0.438,0.27,0.405
NCI-H1650,0.234,0.189,0.205,0.248,0.188,0.54,0.602,0.605,0.725,0.457,0.355,0.41,0.454,0.232,,,,,,0.267
NCI-H1395,,,,,,0.711,,0.68,0.744,0.812,0.445,0.485,0.453,0.373,0.375,0.373,0.391,0.373,0.355,0.377
SK-LU-1,0.703,0.561,0.778,0.923,0.761,0.488,0.463,0.513,0.548,0.588,0.273,0.491,0.414,0.185,,,,,,0.259
LU99A,1.02,1.08,1.05,1.18,1.18,0.545,0.533,0.506,,0.504,0.871,0.761,0.682,0.258,0.305,0.247,0.263,0.166,0.127,0.443
NCI-H1355,1.13,1.19,1.16,1.25,1.16,0.53,0.59,0.585,0.624,0.62,0.497,0.429,0.43,0.316,0.834,0.73,0.699,0.419,0.308,0.373
HCC-78,0.619,0.72,0.557,0.546,0.587,,,0.444,0.597,0.508,0.912,0.771,0.63,0.319,0.627,0.712,0.553,0.484,0.242,0.495
NCI-H1563,0.846,0.743,0.83,0.766,0.922,,,,,,0.674,0.622,0.626,0.54,,,,,,0.61
HCC-15,0.973,1.08,1.01,0.989,1.02,0.844,0.817,0.803,0.854,0.824,0.482,0.488,0.449,0.184,1.18,1.02,1.26,1.13,0.971,0.291
EKVX,0.992,0.906,0.986,1.09,0.992,0.66,0.766,0.687,0.548,0.899,0.26,0.222,0.229,0.215,0.693,0.73,0.659,0.589,0.303,0.225
NCI-H2087,0.686,0.845,0.732,0.849,0.91,0.596,0.903,0.592,0.691,0.913,0.622,0.454,0.378,0.123,1.24,1.35,1.67,0.707,0.597,0.286
LK-2,,,,,,0.295,0.318,0.33,0.405,0.392,0.297,0.324,0.248,0.114,0.273,0.447,0.305,0.12,0.0726,0.146
NCI-H1437,0.551,0.453,0.49,0.405,0.743,0.828,0.838,0.858,0.955,0.823,0.27,0.341,0.323,0.289,1.07,1.18,1.12,1.05,1.1,0.296
COR-L23,0.996,1.1,0.888,0.925,0.832,0.415,0.312,0.364,0.407,0.377,0.508,0.417,0.429,0.159,,,,,,0.229
NCI-H522,,,,,,0.688,0.909,0.927,0.874,0.818,0.591,0.647,0.548,0.631,0.83,0.858,0.979,0.695,0.626,0.535
SW 900,,,,,,0.536,0.303,0.43,0.675,0.678,0.67,0.536,0.591,0.198,0.607,0.526,0.596,0.435,0.224,0.288

Cell Line,relative viability (AZ505 + Bortezomib; first compound 0.08 µM),relative viability (AZ505 + Bortezomib; first compound 0.253 µM),relative viability (AZ505 + Bortezomib; first compound 0.8 µM),relative viability (AZ505 + Bortezomib; first compound 2.53 µM),relative viability (AZ505 + Bortezomib; first compound 8 µM),relative viability (AZ505 + Vorinostat; first compound 0.08 µM),relative viability (AZ505 + Vorinostat; first compound 0.253 µM),relative viability (AZ505 + Vorinostat; first compound 0.8 µM),relative viability (AZ505 + Vorinostat; first compound 2.53 µM),relative viability (AZ505 + Vorinostat; first compound 8 µM),relative viability (Dactolisib + Phenformin; first compound 0.002 µM),relative viability (Dactolisib + Phenformin; first compound 0.006325 µM),relative viability (Dactolisib + Phenformin; first compound 0.02 µM),relative viability (Dactolisib + Phenformin; first compound 0.2 µM),relative viability (Dactolisib + AZD7762; first compound 0.002 µM),relative viability (Dactolisib + AZD7762; first compound 0.006325 µM),relative viability (Dactolisib + AZD7762; first compound 0.02 µM),relative viability (Dactolisib + AZD7762; first compound 0.06325 µM),relative viability (Dactolisib + AZD7762; first compound 0.2 µM),relative viability (Dactolisib + Phenformin; first compound 0.06325 µM)
A549,,,,,,,,,,,0.183,0.153,0.172,0.0668,,,,,,0.103
NCI-H1792,0.785,1.07,0.927,0.94,1,,,,,,0.249,0.172,0.262,0.0814,0.748,0.448,0.569,0.0821,0.0508,0.101
NCI-H1703,0.351,0.383,0.366,0.358,0.458,,,,,,,,,,,0.139,0.127,0.124,0.115,
SW 1573,0.907,1.08,0.939,1.12,1.08,0.807,0.806,1.53,0.756,0.79,0.382,0.238,0.31,0.175,,,,,,0.139
COR-L 105,0.712,0.907,0.813,0.65,0.77,0.778,0.87,0.86,0.902,0.89,0.494,0.489,0.432,0.259,,,,,,0.256
Calu-6,0.969,1.07,0.906,0.915,1.12,,,,,,,,,,,,,,,
NCI-H358,,,,,,0.665,1.03,0.834,0.633,0.69,0.317,0.302,0.286,0.111,0.474,0.545,0.559,0.445,0.188,0.221
NCI-H1944,,,,,,0.563,0.551,0.641,0.514,0.55,0.235,0.21,0.187,0.14,0.374,0.47,0.401,0.24,0.195,0.138
NCI-H1648,,,,,,,0.43,0.418,0.526,0.573,,,,,0.934,0.762,0.629,0.603,0.555,
EBC-1,0.479,0.519,0.452,0.533,0.515,,,,,,,,,,,,,,,
NCI-H1299,1.01,1.05,0.926,0.998,1.01,,,,,,,,,,,,,,,
NCI-H2228,0.907,1.15,0.856,0.864,0.828,0.409,0.589,0.543,0.643,0.588,0.302,0.272,0.179,0.164,,,,,,0.192
NCI-H2342,,,,,,0.799,0.844,0.84,0.866,0.83,0.492,0.64,0.54,0.525,0.511,0.49,0.444,0.471,0.413,0.559
IA-LM,0.59,0.867,0.835,0.866,0.896,0.878,,0.933,,1.17,,,,,,,,,,
SK-MES-1,,,,,,0.889,1,0.969,0.893,0.995,0.667,0.662,0.627,0.212,,,,,,0.388
NCI-H2170,,,,,,0.659,0.851,0.749,0.859,0.823,0.454,0.433,0.48,0.284,0.806,0.88,0.753,0.382,0.244,0.434
NCI-H661,0.798,1.01,0.716,0.787,0.732,0.744,0.818,0.797,0.75,0.888,0.254,0.278,0.292,0.265,,,,,,0.216
NCI-H1793,,,,,,0.637,0.653,0.641,0.898,0.806,0.477,0.294,0.228,0.187,0.44,0.361,0.38,0.246,0.11,0.202
NCI-H520,0.588,0.504,0.496,0.706,0.762,0.594,0.847,0.648,0.731,0.781,0.529,0.534,0.369,0.217,,,,,,0.202
NCI-H2023,0.845,0.872,0.911,1.18,1.01,0.57,0.631,0.63,0.588,0.835,0.43,0.361,0.309,0.122,,,,,,0.14
NCI-H2009,0.982,0.929,1.04,0.657,0.901,0.635,0.678,0.652,0.626,0.678,0.553,0.467,0.474,0.198,,,,,,0.308
